A short description of this data set: Tablet friability, Vanderkamp Friabulator (100 rotations/4 minutes). Format: physicochemical. The procedure:
Friability is a standard test known to one skilled in the art. Friability is measured under standardized conditions by weighing out a certain number of tablets (generally 20 tablets or less), placing them in a rotating Plexiglas drum in which they are lifted during replicate revolutions by a radial lever, and then dropped approximately 8 inches. After replicate revolutions (typically 100 revolutions at 25 rpm), the tablets are reweighed and the percentage of formulation abraded or chipped is calculated. The friability of the tablets, of the present invention, is preferably in the range of about 0% to 3%, and values about 1%, or less, are considered acceptable for most drug and food tablet contexts. Friability which approaches 0% is particularly preferred.
All four formulations were compressed on the compaction simulator using either 0.344″×0.688″ oval tooling, or ½″ standard round concave (SRC) tooling. The tablets were tested for hardness (kP scale), using a Schleuniger hardness tablet tester (Dr. Schleuniger Pharmatron AG, Solothurn, Switzerland), and for friability (100 rotations/4 minutes) using a Vanderkamp Friabulator Tablet Tester (Vankel, Cary, N.C., US).

The text below walks through data of US20030228357A1, “Dry granulated formulations of azithromycin” (Pfizer Inc., priority 2002, published 2003).

“Also recorded” adds a separate entry of the source.

Consider `CC[C@H]1OC(=O)[C@H](C)[C@@H](O[C@H]2C[C@@](C)(OC)[C@@H](O)[C@H](C)O2)[C@H](C)[C@@H](O[C@@H]2O[C@H](C)C[C@H](N(C)C)[C@H]2O)[C@](C)(O)C[C@@H](C)CN(C)[C@H](C)[C@@H](O)[C@]1(C)O` [Form A, azithromycin dihydrate, reference compound], for which the Friability is given as 2 of 5 (Table 2A, 35.2 wt % azithromycin, DCP anhydrous, Long blend, Oval tooling); 1.30% (Table 2A, 35.2 wt % azithromycin, DCP anhydrous, Long blend, ½″ SRC tooling); “capped” (Table 2B Run 4, Short blend, Oval tooling, compression force 12 kN); “capped” (Table 2B Run 5, Short blend, Oval tooling, compression force 18.7 kN); “broke during friability testing; also recorded: Broken” (Table 3C, low drug loading (35.2 wt % azithromycin), DCP anhydrous, oval tablets, target weight 750 mg, dihydrate); 0.50% (Table 3D, high drug loading (58.2 wt % azithromycin), DCP anhydrous, modified capsule shape tablets, target weight 450 mg). Moreover, the Friability entry (Table 4C, low drug loading, diluent DCP, anhyd., Oval tooling) is “Broken”; the Friability (Table 4C, low drug loading, diluent DCP, anhyd., SRC (½″) tooling) came out at 1.30%; the Friability result (Table 4C, low drug loading, diluent DCP, dihyd., Oval tooling) is on record as “Broken”; the Friability (Table 4C, low drug loading, diluent DCP, dihyd., SRC (½″) tooling) is 0.94%; the Friability (Table 4D, high drug loading, diluent DCP, anhyd., modified capsule shape) came out at 0.50%.
